The values below come from patent US20060142312A1, “C6-aryl and heteroaryl substituted pyrido[2,3-D] pyrimidin-7-ones” (PFIZER INC, priority 2004, published 2006).

In general, melting point refers to the temperature of the solid-liquid transition.

Compound `CCCN1CCC(Nc2ncc3cc(Cc4ccc(C)cc4)c(=O)n(C4CCCC4)c3n2)CC1` [Example 59, 8-Cyclopentyl-6-(4-methyl-benzyl)-2-(1-propyl-piperidin-4-ylamino)-8H-pyrido[2,3-d]pyrimidin-7-one] yielded a melting point of 154 to 155 °C.

`Cc1ccccc1Cc1cc2cnc(Nc3ccc(N4CCNCC4)cc3)nc2n(C2CCCC2)c1=O` [Example 69, 8-Cyclopentyl-6-(2-methyl-benzyl)-2-(4-piperazin-1-yl-phenylamino)-8H-pyrido[2,3-d]pyrimidin-7-one] gave a melting point of 210 °C.

On to `CCCN1CCC(Nc2ncc3cc(Cc4nccs4)c(=O)n(C4CCCC4)c3n2)CC1` [Example 86, 8-Cyclopentyl-2-(1-propyl-piperidin-4-ylamino)-6-thiazol-2-ylmethyl-8H-pyrido[2,3-d]pyrimidin-7-one], for which the melting point is 149 to 152 °C.

Regarding `CN(C)c1ncc2cc(Cc3ccccc3)c(=O)n(C3CCCC3)c2n1` [Example 49, 6-Benzyl-8-cyclopentyl-2-dimethylamino-8H-pyrido[2,3-d]pyrimidin-7-one], the melting point was in the range of 115 to 117 °C.

Consider `Cc1ccccc1Cc1cc2cnc(NCCN3CCOCC3)nc2n(C2CCCC2)c1=O` [Example 73, 8-Cyclopentyl-6-(2-methyl-benzyl)-2-(2-morpholin-4-yl-ethylamino)-8H-pyrido[2,3-d]pyrimidin-7-one], for which the melting point is 134 to 137 °C.

In turn, `CN(C)C1CCC(Nc2ncc3cc(Cc4ccccc4)c(=O)n(C4CCCC4)c3n2)CC1` (stereo not shown) [Example 40, 6-Benzyl-8-cyclopentyl-2-(4-dimethylamino-cyclohexylamino)-8H-pyrido[2,3-d]pyrimidin-7-one] displayed a melting point of 167 to 170 °C.

`Cc1ccc(Cc2cc3cnc(NCCCN4CCOCC4)nc3n(C3CCCC3)c2=O)cc1` [Example 76, 8-Cyclopentyl-6-(4-methyl-benzyl)-2-(3-morpholin-4-yl-propylamino)-8H-pyrido[2,3-d]pyrimidin-7-one] displayed a melting point of 114 to 116 °C.

In turn, `CCc1ccc(Cc2cc3cnc(Nc4ccc(N5CCNCC5)cc4)nc3n(C3CCCC3)c2=O)cc1` [Example 71, 8-Cyclopentyl-6-(4-ethyl-benzyl)-2-(4-piperazin-1-yl-phenylamino)-8H-pyrido[2,3-d]pyrimidin-7-one] had a melting point of 175 °C.

`CN(C)CCCCNc1ncc2cc(Cc3ccccn3)c(=O)n(C3CCCC3)c2n1` [Example 89, 8-Cyclopentyl-2-(4-dimethylamino-butylamino)-6-pyridin-2-ylmethyl-8H-pyrido[2,3-d]pyrimidin-7-one] registered a melting point of 105 to 107 °C.

For `Cc1ccccc1Cc1cc2cnc(NC3CCC(N(C)C)CC3)nc2n(C2CCCC2)c1=O` (stereo not shown) [Example 64, 8-Cyclopentyl-2-(4-dimethylamino-cyclohexylamino)-6-(2-methyl-benzyl)-8H-pyrido[2,3-d]pyrimidin-7-one], the melting point was in the range of 178 to 183 °C.

As to `CC(C)S(=O)(=O)N1CCC(Nc2ncc3cc(Cc4ccccc4)c(=O)n(C4CCCC4)c3n2)CC1` [Example 34, 6-Benzyl-8-cyclopentyl-2-[1-(propane-2-sulfonyl)-piperidin-4-ylamino]-8H-pyrido[2,3-d]pyrimidin-7-one], the melting point is 210 to 212 °C.

Consider `O=c1c(Cc2ccccc2)cc2cnc(NCc3ccccc3)nc2n1C1CCCC1` [Example 43, 6-Benzyl-2-benzylamino-8-cyclopentyl-8H-pyrido[2,3-d]pyrimidin-7-one], for which the melting point was 186 to 188 °C.

In turn, `CCCN1CCC(Nc2ncc3cc(Cc4ccc(C(C)C)cc4)c(=O)n(C4CCCC4)c3n2)CC1` [Example 63, 8-Cyclopentyl-6-(4-isopropyl-benzyl)-2-(1-propyl-piperidin-4-ylamino)-8H-pyrido[2,3-d]pyrimidin-7-one] had a melting point of 156 to 160 °C.

`CCc1ccc(Cc2cc3cnc(NC4CCC(N(C)C)CC4)nc3n(C3CCCC3)c2=O)cc1` (stereo not shown) [Example 67, 8-Cyclopentyl-2-(4-dimethylamino-cyclohexylamino)-6-(4-ethyl-benzyl)-8H-pyrido[2,3-d]pyrimidin-7-one] displayed a melting point of 175 to 181 °C.

For the compound `Cc1c(C(O)c2ccccc2)c(=O)n(C2CCCC2)c2nc(Nc3ccc(N4CCNCC4)cc3)ncc12` (stereo not shown) [Example 31, 8-Cyclopentyl-6-(hydroxy-phenyl-methyl)-5-methyl-2-(4-piperazin-1-yl-phenylamino)-8H-pyrido[2,3-d]pyrimidin-7-one], the melting point is 185 °C (dec.).

Turning to `Cc1ccccc1Cc1cc2cnc(NCCCN3CCOCC3)nc2n(C2CCCC2)c1=O` [Example 74, 8-Cyclopentyl-6-(2-methyl-benzyl)-2-(3-morpholin-4-yl-propylamino)-8H-pyrido[2,3-d]pyrimidin-7-one], the melting point lay in the range of 118 to 119 °C.

In turn, `Cc1ccc(Cc2cc3cnc(NCCCN4CCN(C)CC4)nc3n(C3CCCC3)c2=O)cc1` [Example 78, 8-Cyclopentyl-6-(4-methyl-benzyl)-2-[3-(4-methyl-piperazin-1-yl)-propylamino]-8H-pyrido[2,3-d]pyrimidin-7-one] showed a melting point of 123 to 124 °C.

`CC(C)c1ccc(Cc2cc3cnc(Nc4ccc(N5CCNCC5)cc4)nc3n(C3CCCC3)c2=O)cc1` [Example 72, 8-Cyclopentyl-6-(4-isopropyl-benzyl)-2-(4-piperazin-1-yl-phenylamino)-8H-pyrido[2,3-d]pyrimidin-7-one] gave a melting point of 140 to 145 °C.

Consider `CCCN1CCC(Nc2ncc3cc(Cc4ccccc4C)c(=O)n(C4CCCC4)c3n2)CC1` [Example 60, 8-Cyclopentyl-6-(2-methyl-benzyl)-2-(1-propyl-piperidin-4-ylamino)-8H-pyrido[2,3-d]pyrimidin-7-one], for which the melting point fell in the range of 149 to 151 °C.

The compound `CNc1ncc2cc(Cc3ccccc3)c(=O)n(C3CCCC3)c2n1` [Example 47, 6-Benzyl-8-cyclopentyl-2-methylamino-8H-pyrido[2,3-d]pyrimidin-7-one] had a melting point of 144 to 146 °C.

Take `O=c1c(Cc2ccccc2)cc2cnc(NCCc3cnc[nH]3)nc2n1C1CCCC1` [Example 51, 6-Benzyl-8-cyclopentyl-2-[2-(3H-imidazol-4-yl)-ethylamino]-8H-pyrido[2,3-d]pyrimidin-7-one]: the melting point is 163 to 165 °C.

Compound `CN(C)C1CCC(Nc2ncc3cc(Cc4nccs4)c(=O)n(C4CCCC4)c3n2)CC1` (stereo not shown) [Example 87, 8-Cyclopentyl-2-(4-dimethylamino-cyclohexylamino)-6-thiazol-2-ylmethyl-8H-pyrido[2,3-d]pyrimidin-7-one] came in with a melting point of 154 to 157 °C.

Take `O=C(O)CCNc1ncc2cc(Cc3ccccc3)c(=O)n(C3CCCC3)c2n1` [Example 52, 3-(6-Benzyl-8-cyclopentyl-7-oxo-7,8-dihydro-pyrido[2,3-d]pyrimidin-2-ylamino)-propionic acid]: the melting point lay within 164 to 170 °C.

Take `Cc1ccc(Cc2cc3cnc(NC4CCC(N(C)C)CC4)nc3n(C3CCCC3)c2=O)cc1` (stereo not shown) [Example 66, 8-Cyclopentyl-2-(4-dimethylamino-cyclohexylamino)-6-(4-methyl-benzyl)-8H-pyrido[2,3-d]pyrimidin-7-one]: the melting point lay in the range of 179 to 184 °C.

For `CN(C)CCCCNc1ncc2cc(Cc3nccs3)c(=O)n(C3CCCC3)c2n1` [Example 90, 8-Cyclopentyl-2-(4-dimethylamino-butylamino)-6-thiazol-2-ylmethyl-8H-pyrido[2,3-d]pyrimidin-7-one], the melting point is 122 to 124 °C.

In the case of `CN1CCN(S(=O)(=O)N2CCC(Nc3ncc4cc(Cc5ccccc5)c(=O)n(C5CCCC5)c4n3)CC2)CC1` [Example 33, 6-Benzyl-8-cyclopentyl-2-[1-(4-methyl-piperazine-1-sulfonyl)-piperidin-4-ylamino]-8H-pyrido[2,3-d]pyrimidin-7-one], the melting point was 182 to 183 °C.

`Cc1ccc(Cc2cc3cnc(NCCN4CCOCC4)nc3n(C3CCCC3)c2=O)cc1` [Example 75, 8-Cyclopentyl-6-(4-methyl-benzyl)-2-(2-morpholin-4-yl-ethylamino)-8H-pyrido[2,3-d]pyrimidin-7-one] displayed a melting point of 88 to 91 °C.

Turning to `O=c1c(Cc2ccccc2)cc2cnc(NC3CCCCC3)nc2n1C1CCCC1` [Example 41, 6-Benzyl-2-cyclohexylamino-8-cyclopentyl-8H-pyrido[2,3-d]pyrimidin-7-one], the melting point is 128 to 130 °C.

Consider `Cc1c(C(=O)c2ccccc2)c(=O)n(C2CCCC2)c2nc(Nc3ccc(N4CCNCC4)cc3)ncc12` [Example 32, 6-Benzoyl-8-cyclopentyl-5-methyl-2-(4-piperazin-1-yl-phenylamino)-8H-pyrido[2,3-d]pyrimidin-7-one], for which the melting point is 190 °C (dec.).

As for `Cc1ccc(Cc2cc3cnc(Nc4ccc(N5CCOC5=O)cc4)nc3n(C3CCCC3)c2=O)cc1` [Example 103, 8-Cyclopentyl-6-(4-methyl-benzyl)-2-[4-(2-oxo-oxazolidin-3-yl)-phenylamino]-8H-pyrido[2,3-d]pyrimidin-7-one], the melting point was in the range of 289.2 to 290 °C.

`CCCN1CCC(Nc2ncc3cc(Cc4ccc(CC)cc4)c(=O)n(C4CCCC4)c3n2)CC1` [Example 62, 8-Cyclopentyl-6-(4-ethyl-benzyl)-2-(1-propyl-piperidin-4-ylamino)-8H-pyrido[2,3-d]pyrimidin-one]: the melting point was in the range of 151 to 153 °C.

`CN(CCO)c1ncc2cc(Cc3ccccc3)c(=O)n(C3CCCC3)c2n1` [Example 48, 6-Benzyl-8-cyclopentyl-2-[(2-hydroxy-ethyl)-methyl-amino]-8H-pyrido[2,3-d]pyrimidin-7-one] showed a melting point of less than 60 °C.

On to `Cc1ccccc1Cc1cc2cnc(NCCCN3CCN(C)CC3)nc2n(C2CCCC2)c1=O` [Example 77, 8-Cyclopentyl-6-(2-methyl-benzyl)-2-[3-(4-methyl-piperazin-1-yl)-propylamino]-8H-pyrido[2,3-d]pyrimidin-7-one], for which the melting point was more than 45 °C.

Turning to `O=c1c(Cc2ccccc2)cc2cnc(NCCO)nc2n1C1CCCC1` [Example 42, 6-Benzyl-8-cyclopentyl-2-(2-hydroxy-ethylamino)-8H-pyrido[2,3-d]pyrimidin-7-one], the melting point is 177 to 179 °C.
